According to US20220249413A1, “SWELL 1 MODULATORS FOR TREATMENT OF NON-ALCOHOLIC FATTY LIVER DISEASE, IMMUNE DEFICIENCIES, MALE INFERTILITY AND VASCULAR DISEASES” (priority 2019, published 2022):

How the values were obtained:
Type in all cases: in vivo, mouse
[1] = system: SWELL1; assay: SWELL1 expression in adipose tissue of treated T2D mice (Western blot); conditions: 5 mg/kg i.p.
Excerpt: Patients Human islets and adipocytes were obtained and cultured as described previously (Zhang et al., Nat Cell Biol, 19, 504-517, 2017; Kang et al., Nature Communications, 9, 367, 2018). The Patients involved in the study were anonymous and information such as gender, age, HbA1c, glucose levels and BMI only were available to the research team. The study was approved and carried out as per the guidelines of the University of Iowa Institutional Review Board (IRB). Animals All experimental procedures involving mice were approved by the Institutional Animal Care and Use Committee of the University of Iowa and Washington University at St. Louis. All C57BL/6 mice involved in study were purchased from Charles River Labs. Both KK.Cg-Ay/J (KKA^y) and KK.Cg-Aa/J (KKA^a) mice involved in study were gender and age-matched mice obtained from Jackson Labs (Stock No: 002468) and bred up for experiments. The mice were fed ad libitum with either regular chow (RC) or high-fat diet (Research Diets, Inc., 60 kcal % fat) with free access to water and housed in a light-, temperature- and humidity-controlled room. For high-fat diet (HFD) studies, only male mice were used and were started on HFD regimen at the age of 6-9 weeks. For all experiments involving KKA^y and KKA^a mice, both males and females were used at approximately 50/50 ratio. […] Based on GFP fluorescence, viral transduction efficiency was ˜90%. […]

[2] = Glucose-stimulated insulin secretion (plasma insulin and islet perifusion); conditions: 21 weeks HFD mice
[3] = Traced hyperinsulinemic euglycemic clamp in KKA^y mice

With `CCCCC1(C2CCCC2)Cc2cc(OCCCC(=O)O)c(Cl)c(Cl)c2C1=O` (stereo not shown) [Smod1, 4-[(2-Butyl-6,7-dichloro-2-cyclopentyl-2,3-dihydro-1-oxo-1H-inden-5-yl)oxy]butanoic acid] as the compound, how does the “augmentation of SWELL1 expression in adipose tissue” value ([1]; HFD-fed T2D mice) read?
Its value is 2.3 fold.

And the “adipose SWELL1 expression” value ([1]; KKA^y mice)?
The value was “levels comparable to both non-T2D C57/B6 mice and to the parental KKA^a parental strain”.

And the “glucose-stimulated insulin secretion (GSIS), serum insulin and perifusion of isolated islets” value [2]?
The value was “significantly improved”.

And the “glucose-infusion rate (GIR) to maintain euglycemia” value ([3]; KKA^y mice, 5 mg/kg for 4 days)?
Its value is 33.58 ± 3.4 mg/kg/min.

What about the “reduction of hepatic glucose production (Ra)” value ([3]; KKA^y mice, baseline (basal)) of the same compound?
Its value is about 1.6 fold.

And the “suppression of hepatic glucose production (Ra)” value ([3]; KKA^y mice, during glucose/insulin infusion (clamp))?
The value was 4.8 fold.

And the “enhancement of insulin stimulated 2-DG uptake” value ([3]; brown fat, skeletal muscle, KKA^y mice)?
The value was “not in brown fat, or skeletal muscle”.

And the “insulin stimulated 2-DG uptake” value ([3]; inguinal white adipose tissue (iWAT), KKA^y mice)?
The value was 7.0 ± 0.78 nmol/min/g.

And the glucose-incorporation into glycogen ([3]; liver, adipose and skeletal muscle)?
Its glucose-incorporation into glycogen is “markedly increased”.

And the “insulin stimulated 2-DG uptake” value ([3]; myocardium (Heart), KKA^y mice)?
Its value is 451.3 ± 24.63 nmol/min/g.
